Assay results: publication PMC8282797, “Strictly regulated agonist-dependent activation of AMPA-R is the key characteristic of TAK-653 for robust synaptic responses and cognitive improvement” (Scientific Reports, 2021)

Key:
rats = experiment: Evaluation of convulsion; type: in vivo, rat; conditions: 100 mg/kg, p.o., 4 h after dosing
Method: The data were extracted from the studies conducted in accordance with the Good Laboratory Practice Regulation. […] The dose levels in the first study and second study were set at "100, 15 and 5 mg/kg, p.o." and "50, 15 and 5 mg/kg, p.o.", respectively. The dosing suspensions were administered into the stomach via a catheter in the morning at the dose volume of 5 mL/kg. Cage side observations to confirm tonic or […] convulsions were conducted before and at 1, 2, 4, 8 and 24 h after dosing in the first study and before and at 1, 4 and 24 h after dosing in the second study.

hGluA1i = molecular target: T1, hGluA1i (Homo sapiens, UniProt P42261); experiment: Ca2+ influx assay in hGluA1i CHO cells; type: cell-based; conditions: in the presence of glutamate (3 mM)
T1 construct: expressed in transfected cells; host or cells: CHO cells
T1 sequence (P42261 19-906 isoform P42261-2 limits assumed): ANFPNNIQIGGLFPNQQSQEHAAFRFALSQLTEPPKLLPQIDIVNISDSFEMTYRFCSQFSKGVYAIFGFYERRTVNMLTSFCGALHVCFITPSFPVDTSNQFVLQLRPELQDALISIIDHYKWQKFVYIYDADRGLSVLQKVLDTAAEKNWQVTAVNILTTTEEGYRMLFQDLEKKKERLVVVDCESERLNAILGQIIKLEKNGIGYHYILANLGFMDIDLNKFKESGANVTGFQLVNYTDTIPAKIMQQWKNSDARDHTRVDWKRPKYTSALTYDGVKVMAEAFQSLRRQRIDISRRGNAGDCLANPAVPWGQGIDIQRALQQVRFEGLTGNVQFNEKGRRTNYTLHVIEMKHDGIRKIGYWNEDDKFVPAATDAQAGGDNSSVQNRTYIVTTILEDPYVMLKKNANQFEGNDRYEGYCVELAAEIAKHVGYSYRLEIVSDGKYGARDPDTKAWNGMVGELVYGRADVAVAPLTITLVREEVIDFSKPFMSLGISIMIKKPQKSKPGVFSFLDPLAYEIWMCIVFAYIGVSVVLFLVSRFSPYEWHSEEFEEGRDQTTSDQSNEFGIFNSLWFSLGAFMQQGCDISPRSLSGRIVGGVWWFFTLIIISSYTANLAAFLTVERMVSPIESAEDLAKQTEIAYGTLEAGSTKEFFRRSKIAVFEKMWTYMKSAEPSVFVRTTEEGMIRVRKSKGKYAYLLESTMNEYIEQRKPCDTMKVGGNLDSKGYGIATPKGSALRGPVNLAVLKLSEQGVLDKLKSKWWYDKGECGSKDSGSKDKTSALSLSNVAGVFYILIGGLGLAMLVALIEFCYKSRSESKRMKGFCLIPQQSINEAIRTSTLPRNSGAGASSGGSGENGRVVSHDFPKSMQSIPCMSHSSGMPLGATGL
T1 sequence (Q9Y698 whole entry partner): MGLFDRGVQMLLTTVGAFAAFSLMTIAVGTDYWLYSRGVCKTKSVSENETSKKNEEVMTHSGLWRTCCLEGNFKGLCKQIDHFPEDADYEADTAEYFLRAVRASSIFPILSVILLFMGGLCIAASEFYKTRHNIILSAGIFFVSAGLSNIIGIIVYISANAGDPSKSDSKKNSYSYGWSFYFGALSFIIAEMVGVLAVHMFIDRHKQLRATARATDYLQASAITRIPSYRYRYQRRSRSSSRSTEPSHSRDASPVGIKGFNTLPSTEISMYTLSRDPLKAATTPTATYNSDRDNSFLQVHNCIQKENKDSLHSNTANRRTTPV
Method: (§1) Ca^2+ influx assays using human GluA1/flip and human stargazin co-expressing CHO cells plated at 3 × 10^4 cells/well in 96-well Black Clear plates (Corning Incorporated, Corning, NY) were performed as previously described, with some modifications. For evaluation of the species difference, rat GluA1/flip expressing CHO cells were plated. For mutant channels, the human GluA1i S743A mutant was generated using the In-Fusion HD Cloning Kit (Takara Bio Inc., Kusatsu, Japan) according to the manufacturer's protocol and transiently introduced to CHO cells by Gene Pulser II Electroporation System (Bio-Rad Laboratories, Inc., Hercules, CA). Relative increases of intracellular Ca^2+ levels were monitored for 3 min with a fluorometric imaging plate reader (CellLux, Perkin Elmer Life and Analytical Sciences, Inc., Shelton, CT). […]
(§2) Human GluA1/flip and human stargazin co-expressing CHO cells were plated at 3×10^4 cells/well in 96-well Black Clear plate (Corning Incorporated, Corning, NY). […] Relative increases of intracellular Ca^2+ levels by compounds in the presence and absence of 3 mM L-glutamate were monitored for 3 min by fluorometric imaging plate reader (CellLux, Perkin Elmer Life and Analytical Sciences, Inc., Shelton, CT). Activity of compound was defined as integration value of fluorescence value of each detection point. […] EC50 values were calculated by logistic regression analysis.

GluA2o LBD = GluA2o LBD (Homo sapiens, UniProt P42262); experiment: SPA binding of [3H]-AMPA to His-LBD
GluA2o LBD, sequence (P42262 with tags, fused parts or gaps): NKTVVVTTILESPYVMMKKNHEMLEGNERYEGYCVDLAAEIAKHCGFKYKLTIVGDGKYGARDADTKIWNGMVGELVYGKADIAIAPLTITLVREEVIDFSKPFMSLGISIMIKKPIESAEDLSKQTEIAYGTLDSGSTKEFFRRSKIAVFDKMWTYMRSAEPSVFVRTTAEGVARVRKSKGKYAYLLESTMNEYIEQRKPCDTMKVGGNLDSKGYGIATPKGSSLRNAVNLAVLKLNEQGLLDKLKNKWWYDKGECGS
Description: We previously reported that structural interference at Ser750 in the channel-closed state of GluA2o LBD might be involved in the molecular mechanisms underlying the lower agonistic effect of AMPA-R potentiators with dihydropyridothiadiazine 2,2-dioxide derivatives and discovered TAK-137, 9-(4-phenoxyphenyl)-3,4-dihydropyrido[2,1-c][1,2,4]thiadiazine 2,2-dioxide (Fig. 1A)[16]. […] TAK-653 bound to the intradimer interface formed by the ligand binding core (Fig. 1B). […] Binding affinity of TAK-653 to the GluA2o LBD was measured by a scintillation proximity assay (SPA) using [^3H]-HBT1, a radio-labeled LBD-binding AMPA-R potentiator, and a His-tagged GluA2o LBD protein (His-LBD)[21]. […] Binding of [^3H]-TAK-653 to His-LBD was also measured by SPA.
The SPA assays were performed as previously described, with some modifications. First, 62.5 μg YSi (2–5 μm) copper his-tag SPA beads (PerkinElmer Inc., Waltham, MA) and 0.25 μg His-tagged GluA2o LBD protein (His-LBD) were incubated in 100 μL PBS containing 0.01% NP-40 and 100 μM glutamate for the [^3H]-HBT1/LBD binding assay, containing 0.01% NP-40 and the indicated amount of glutamate for the [^3H]-TAK-653/LBD binding assay or containing 0.001% Triton X-100 for the [^3H]-AMPA/LBD binding assay in 96-well Luminunc plates (Thermo Fisher Scientific Inc.) overnight at 4 °C. Subsequently, test compound and tritium-labeled ligand (40 nM [^3H]-HBT1, 20 nM [^3H]-TAK-653 or 20 nM [^3H]-AMPA) were added to each well. Specific binding was defined as total binding minus nonspecific binding, which was estimated in the presence of 0.25 μg of control protein (His-tagged macrophage MIF protein) instead of His-LBD or in the presence of 3 mM AMPA. Radioactivity derived from the bound radio ligand was measured using a microplate scintillation counter (TopCount NXT, PerkinElmer Inc.).

GluA1i S743A = molecular target: T2, GluA1i S743A (Homo sapiens, UniProt P42261, S743A); experiment: Ca2+ influx assay in CHO cells expressing GluA1i S743A; type: cell-based; conditions: at each concentration of glutamate tested (0, 0.3 μM, 1 μM, 3 mM)
T2 construct: expressed in transfected cells; host or cells: CHO cells, transient electroporation
T2 sequence (P42261 19-906 isoform P42261-2 S743A limits assumed): as the sequence (P42261 19-906 isoform P42261-2 limits assumed) above, with S725A counted along it
T2 sequence (Q9Y698 whole entry partner): as the sequence (Q9Y698 whole entry partner) above
Method: as §1, §2

[1] = test system: GluA1-4i and TARP γ-2 or GluA1-4o and TARP γ-2; experiment: Ca2+ influx assay, AMPA-R subunit selectivity; type: cell-based, human
Method: Human GluA1/flip and human stargazin co-expressing CHO cells were plated at 3×10^4 cells/well in 96-well Black Clear plate (Corning Incorporated, Corning, NY). For subunit selectivity study, human AMPA-Rs (GluA1-4i, GluA1-4o and GluA1i mutants) and human TARPs γ2 co-expressing CHO cells were plated. For evaluation of the species difference, rat GluA1/flip expressing CHO cells were plated. For mutant channels, Human GluA1i S743A mutant was generated by In-Fusion HD Cloning Kit (Takara Bio Inc., Kusatsu, Japan) according to manufacturer's protocol. Each hGluA1i mutant vector was transiently introduced to CHO cells by Gene Pulser II Electroporation System (Bio-Rad Laboratories, Inc., Hercules, CA) and incubated for 6 h in 5% CO2 at 37°C. Then, cells were harvested and plated. These cells were seeded at 3×10^4 cells/well in 96-well Black Clear plate and incubated for 24 h in 5% CO2 at 37°C. […] Relative increases of intracellular Ca^2+ levels by compounds in the presence and absence of 3 mM L-glutamate were monitored for 3 min by fluorometric imaging plate reader (CellLux, Perkin Elmer Life and Analytical Sciences, Inc., Shelton, CT). Activity of compound was defined as integration value of fluorescence value of each detection point. […] EC50 values were calculated by logistic regression analysis. […]

Structure (SMILES): CC1=CN2CCS(=O)(=O)N=C2C(c2ccc(OC3CCCCC3)cc2)=N1 [TAK-653, 9-[4-(Cyclohexyloxy)phenyl]-7-methyl-3,4-dihydropyrazino[2,1-c][1,2,4]thiadiazine 2,2-dioxide]
- Convulsions (rats): chronic and tonic convulsions in 1 animal
- EC50 (hGluA1i): 3300 nM
- Inhibition of specific binding of [3H]-AMPA to His-LBD (GluA2o LBD): did not inhibit
- EC50 (GluA2o LBD; SPA, 20 nM [3H]-AMPA, read-out: EC50 of increase in [3H]-AMPA binding): 1500 ± 200 nM
- Emax (GluA2o LBD; SPA, 20 nM [3H]-AMPA, read-out: Emax of increase in [3H]-AMPA binding): 19.9 ± 3.4%
- Maximum responses in S743A GluA1i versus wild-type GluA1i CHO cells (GluA1i S743A): higher
- Subunit selectivity for homomeric AMPA-R [1]: did not show prominent subunit selectivity
